Results reported in US20260085073A1, “PYRAZOLYLCARBOXAMIDE COMPOUNDS AND THEIR USE IN THERAPY” (Hotspot Therapeutics, Inc., priority 2022, published 2026).

Target: T1, MALT1 (Homo sapiens, UniProt Q9UDY8)
T1 construct: Avi-tagged FL MALT-1 (Pharmaron, stored at −70° C.); Avi-tag
T1 sequence (Q9UDY8 1-824): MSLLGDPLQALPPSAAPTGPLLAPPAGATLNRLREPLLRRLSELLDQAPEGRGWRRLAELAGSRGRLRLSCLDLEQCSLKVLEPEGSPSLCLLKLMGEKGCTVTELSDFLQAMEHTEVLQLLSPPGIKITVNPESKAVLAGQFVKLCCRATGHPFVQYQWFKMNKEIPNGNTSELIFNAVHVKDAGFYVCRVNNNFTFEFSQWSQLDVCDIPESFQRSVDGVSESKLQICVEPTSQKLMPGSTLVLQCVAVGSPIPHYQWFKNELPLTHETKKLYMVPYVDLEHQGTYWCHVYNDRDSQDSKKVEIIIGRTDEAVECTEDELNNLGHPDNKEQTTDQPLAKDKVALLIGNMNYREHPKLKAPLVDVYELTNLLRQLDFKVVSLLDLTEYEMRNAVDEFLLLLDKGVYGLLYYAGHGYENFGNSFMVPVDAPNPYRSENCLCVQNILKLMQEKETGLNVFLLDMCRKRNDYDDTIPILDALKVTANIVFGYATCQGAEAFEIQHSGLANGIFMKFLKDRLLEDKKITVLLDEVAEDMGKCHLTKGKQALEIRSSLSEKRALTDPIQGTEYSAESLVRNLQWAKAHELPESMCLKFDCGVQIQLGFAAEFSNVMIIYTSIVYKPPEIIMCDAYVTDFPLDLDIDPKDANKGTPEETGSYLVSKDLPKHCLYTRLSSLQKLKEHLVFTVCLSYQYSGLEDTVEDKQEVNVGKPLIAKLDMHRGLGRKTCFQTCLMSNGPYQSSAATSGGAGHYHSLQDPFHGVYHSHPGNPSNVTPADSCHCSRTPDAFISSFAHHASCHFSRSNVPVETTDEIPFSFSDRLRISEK
Assay: MALT1 inhibition assay (MALT-1 Fluorogenic Peptide Cleavage Assay, Ac-LRSR-AMC substrate)
Format: biochemical
Settings: Avi-tagged FL MALT-1, 30 min pre-incubation, 90 min reaction at room temperature, fluorescence intensity
Experimental: Example 71—MALT1 Inhibition Assay
Compounds were tested for ability to bind to MALT1.
Inhibition of MALT1 activity by the presence of small molecules was evaluated using MALT-1 Fluorogenic Peptide Cleavage Assay. The assay utilizes a quenched AMC-labelled peptide that contains the MALT-1 recognition sequence and cleavage site (LRSR). MALT-1 mediated cleavage of the peptide relieves the quenching and leads to an increase in fluorescence at excitation (342 nm) and emission (441 nm).
The following reagents were obtained commercially and used to prepare standard reagent formulations as further described below: N-2-hydroxyethylpiperazine-N-2-ethane sulfonic acid (HEPES) (1 M, pH 7.5, stored at 4° C.), sodium citrate (stored at RT), tris(2-carboxyethyl) phosphine hydrochloride (T-CEP) (500 mM, stored at −20° C.), ethylenediaminetetraacetic acid (EDTA) (500 mM, stored at RT), dimethylsulfoxide (DMSO, stored at RT), 3-[(3-cholamidopropyl)dimethylammonio]-1-propane sulphate (CHAPS) (stored at RT), dimethylsulfoxide (DMSO), DMSO (Fisher Scientific, stored at RT), Avi-tagged FL MALT-1 (Pharmaron, stored at −70° C.), Ac-LRSR-AMC Peptide (SM Biochemicals, stored at −20° C.), and ultrapure water (MILLI-QR).
The standard reagent formulations used in this assay were prepared and stored as follows. A 1.1 M solution of sodium citrate (161.3 g, 500 mL) was prepared and stored at room temperature. A 10% (w/v) CHAPS solution (2.0 g, 20 mL) was prepared and stored at 4° C. A 500 mM HEPES solution having pH of 6.89 was prepared from 200 mL of a 1 M HEPES solution having a pH of 7.5 using concentrated hydrochloric acid and brought to a final volume of 400 mL with MILLI-QR H2O. The substrate, 10 mM Ac-LRSR-AMC Peptide, was prepared (10 mg, 1.370 mL DMSO) and stored at −20° C.
Compounds were plated to provide a 2% DMSO final concentration using a ProxiPlate-384 Plus F Black 384-shallow well microplate. The assay-ready plates were equilibrated to room temperature. A reaction buffer (30 mL total volume) was prepared by combining HEPES (pH 6.89, 25 mM, 1.5 mL), sodium citrate (660 mM, 18.0 mL), T-CEP (1 mM, 0.06 mL), EDTA ([…], 0.06 mL), CHAPS (0.05%, 0.15 mL), DMSO (2%, 0.6 mL), and MILLI-QR H2O (10.23 mL; 9.63 mL when backfilled to 2% DMSO) followed by thorough mixing. DMSO was added only when compound plates had not been DMSO-backfilled to 2%.
MALT-1 was thawed and kept on ice. Peptide substrate was thawed on the bench under ambient conditions. A MALT-1 enzyme working stock was prepared from Avi-tagged FL MALT-1 (40 nM in a prepared reagent volume of 16.5 μL) and the reaction buffer (13.0 mL). MALT1 working stock (5 μL) was added to each well of the microplate. MALT-1 was pre-incubated with compounds for 30 minutes at room temperature.
Two substrate working stocks (Km and 10×Km) were prepared. The 1×Km substrate was prepared from Ac-LRSR-AMC Peptide (50 μM in a prepared reagent volume of 35.0 μL) and the reaction buffer (6.965 mL). The 10×Km substrate was prepared from Ac-LRSR-AMC Peptide (280 μM in a prepared reagent volume of 196.0 μL) and the reaction buffer (6.804 mL). The reaction was initiated by the addition of substrate working stock (5 μL, 50 μM) to Km plates and the addition of substrate working stock (5 μL 280 μM) to 10×Km plates. The plates were covered and incubated on the bench at room temperature for 90 minutes.
Fluorescence intensity was determined using a CLARIOstar microplate reader (BMG LABTECH) using the optimised AMC mode. Before taking readings, a 70% gain was applied on the neutral control well. Compound data were normalised to % Inhibition and used to plot sigmoidal concentration response curves to yield various parameters including IC50.

Structure (SMILES)	IC50 [nM]
Cn1nc(-c2cccc3c2OCO3)c(C(F)(F)F)c1C(=O)Nc1cnc(-n2nccn2)c(C#N)c1 [Compound I-43]	< 500
Cn1nc(-c2cccc3c2OCCO3)c(C(F)(F)F)c1C(=O)Nc1ccnc(C(F)(F)F)c1 [Compound I-44]	500 to 2500
Cn1nc(-c2ccc(F)cc2Cl)c(C(F)(F)F)c1C(=O)Nc1ccnc(C(F)(F)F)c1 [Compound I-45]	< 500
Cn1nc(-c2cccc3[nH]ncc23)c(C(F)(F)F)c1C(=O)Nc1ccnc(C(F)(F)F)c1 [Compound I-46]	500 to 2500
Cn1nc(-c2cccc3occc23)c(C(F)(F)F)c1C(=O)Nc1ccnc(C(F)(F)F)c1 [Compound I-47]	< 500
Cn1nc(-c2cccn(C)c2=O)c(C(F)(F)F)c1C(=O)Nc1ccnc(C(F)(F)F)c1 [Compound I-48]	> 10000
Cn1nc(-c2c(Cl)ccc3c2OCO3)c(C(F)(F)F)c1C(=O)Nc1ccnc(C(F)(F)F)c1 [Compound I-49]	< 500
Cn1nc(-c2ccc(F)c3c2OCO3)c(C(F)(F)F)c1C(=O)Nc1ccnc(C(F)(F)F)c1 [Compound I-50]	< 500
Cn1nc(-c2cccc3c2OCCN3)c(C(F)(F)F)c1C(=O)Nc1ccnc(C(F)(F)F)c1 [Compound I-51]	> 10000
COc1cccc(-c2nn(C)c(C(=O)Nc3ccnc(C(F)(F)F)c3)c2C(F)(F)F)c1OC [Compound I-52]	500 to 2500
Cn1nc(-c2cccc3c2NCCO3)c(C(F)(F)F)c1C(=O)Nc1ccnc(C(F)(F)F)c1 [Compound I-54]	500 to 2500
Cc1ccc2ncccc2c1-c1nn(C)c(C(=O)Nc2ccnc(C(F)(F)F)c2)c1C(F)(F)F [Compound I-55]	500 to 2500
Cn1nc(-c2cccc3c2ccn3C)c(C(F)(F)F)c1C(=O)Nc1ccnc(C(F)(F)F)c1 [Compound I-56]	500 to 2500
Cn1nc(-c2cccc3c2ccn3CC(=O)O)c(C(F)(F)F)c1C(=O)Nc1ccnc(C(F)(F)F)c1 [Compound I-57]	> 10000
Cn1nc(-c2cccc3ncccc23)c(C(F)(F)F)c1C(=O)Nc1cnc(-n2nccn2)c(Cl)c1 [Compound I-58]	< 500
Cn1nc(-c2ccccc2Cl)c(C(F)(F)F)c1C(=O)Nc1ccnc(C(F)(F)F)c1 [Compound I-59]	< 500
Cn1nc(-c2cccc3ncsc23)c(C(F)(F)F)c1C(=O)Nc1ccnc(C(F)(F)F)c1 [Compound I-60]	< 500
Cn1nc(-c2cccc3cnn(C)c23)c(C(F)(F)F)c1C(=O)Nc1ccnc(C(F)(F)F)c1 [Compound I-61]	500 to 2500
Cn1cc2c(-c3nn(C)c(C(=O)Nc4ccnc(C(F)(F)F)c4)c3C(F)(F)F)cccc2n1 [Compound I-62]	2500 to 10000
Cn1nc(-c2cccc3c(=O)[nH]ccc23)c(C(F)(F)F)c1C(=O)Nc1ccnc(C(F)(F)F)c1 [Compound I-63]	< 500
Cn1nc(-c2cccn3ncnc23)c(C(F)(F)F)c1C(=O)Nc1ccnc(C(F)(F)F)c1 [Compound I-64]	500 to 2500
Cn1nc(-c2cccc3c2CNC3=O)c(C(F)(F)F)c1C(=O)Nc1ccnc(C(F)(F)F)c1 [Compound I-65]	< 500

Structure (SMILES)	IC50 [nM]
Cn1nc(-c2ccnc3ccsc23)c(C(F)(F)F)c1C(=O)Nc1ccnc(C(F)(F)F)c1 [Compound I-66]	500 to 2500
Cn1nc(-c2cccc3cnsc23)c(C(F)(F)F)c1C(=O)Nc1ccnc(C(F)(F)F)c1 [Compound I-67]	> 10000
COc1cccc(-c2nn(C)c(C(=O)Nc3ccnc(C(F)(F)F)c3)c2C(F)(F)F)c1Cl [Compound I-68]	500 to 2500
Cn1nc(-c2cnn3ccccc23)c(C(F)(F)F)c1C(=O)Nc1ccnc(C(F)(F)F)c1 [Compound I-69]	2500 to 10000
Cn1nc(-c2cncc(C#N)c2)c(C(F)(F)F)c1C(=O)Nc1ccnc(C(F)(F)F)c1 [Compound I-70]	> 10000
Cn1nc(-c2cnc3n2CCOC3)c(C(F)(F)F)c1C(=O)Nc1ccnc(C(F)(F)F)c1 [Compound I-71]	> 10000
Cn1nc(-c2ccnc3c2OCO3)c(C(F)(F)F)c1C(=O)Nc1ccnc(C(F)(F)F)c1 [Compound I-72]	500 to 2500
Cn1nc(-c2csc3ccncc23)c(C(F)(F)F)c1C(=O)Nc1ccnc(C(F)(F)F)c1 [Compound I-73]	500 to 2500
Cn1nc(-c2cnn3ccncc23)c(C(F)(F)F)c1C(=O)Nc1ccnc(C(F)(F)F)c1 [Compound I-74]	> 10000
Cn1nc(-c2cc(O)ccc2Cl)c(C(F)(F)F)c1C(=O)Nc1ccnc(C(F)(F)F)c1 [Compound I-75]	500 to 2500
CN(C)c1cc(-c2nn(C)c(C(=O)Nc3ccnc(C(F)(F)F)c3)c2C(F)(F)F)ccn1 [Compound I-76]	> 10000
Cn1nc(-c2cnc(N)c3ccccc23)c(C(F)(F)F)c1C(=O)Nc1ccnc(C(F)(F)F)c1 [Compound I-77]	500 to 2500
Cn1nc(-c2cccc3c(N)nccc23)c(C(F)(F)F)c1C(=O)Nc1ccnc(C(F)(F)F)c1 [Compound I-78]	> 10000
Cc1ncccc1-c1nn(C)c(C(=O)Nc2ccnc(C(F)(F)F)c2)c1C(F)(F)F [Compound I-79]	2500 to 10000
Cc1cncc(-c2nn(C)c(C(=O)Nc3ccnc(C(F)(F)F)c3)c2C(F)(F)F)c1 [Compound I-80]	> 10000
Cn1nc(-c2cncc(F)c2)c(C(F)(F)F)c1C(=O)Nc1ccnc(C(F)(F)F)c1 [Compound I-81]	2500 to 10000
Cn1nc(-c2cccc(S(C)(=O)=O)c2)c(C(F)(F)F)c1C(=O)Nc1ccnc(C(F)(F)F)c1 [Compound I-82]	2500 to 10000
Cn1nc(-c2ccc(F)nc2F)c(C(F)(F)F)c1C(=O)Nc1ccnc(C(F)(F)F)c1 [Compound I-83]	2500 to 10000
Cc1coc2c(-c3nn(C)c(C(=O)Nc4ccnc(C(F)(F)F)c4)c3C(F)(F)F)cccc12 [Compound I-84]	500 to 2500
Cn1nc(N2CCCc3ccccc32)c(C(F)(F)F)c1C(=O)Nc1ccnc(C(F)(F)F)c1 [Compound I-85, 3-(3,4-dihydroquinolin-1 (2H)-yl)-1-methyl-4-(trifluoromethyl)-N-(2-(trifluoromethyl)pyridin-4-yl)-1H-pyrazole-5-carboxamide]	500 to 2500
Cn1nc(Nc2ccccc2)c(C(F)(F)F)c1C(=O)Nc1cnc(-n2nccn2)c(Cl)c1 [Compound I-86]	< 500
